Experimental findings from patent publication US20200291100A1, “TREATMENT OF AGE-RELATED AND MITOCHONDRIAL DISEASES BY INHIBITION OF HIF-1 ALPHA FUNCTION” (President and Fellows of Harvard College, priority 2012, published 2020) are described below.

In assay [1] the test system is 6- and 22-month-old C57BL/6J mice. As to the kind of experiment: NMN treatment of 6- and 22-month-old mice, skeletal muscle readouts. Conditions: NMN for one week. The format is in vivo, mouse. From the text:
C57BL/6J mice of 6, 22, or 30 months of age were obtained from the National Institutes of Aging mouse aging colony. Additionally 22 months old caloric restricted mice were also obtained from the National Institutes of Aging mouse aging colony. EGLN1 KO, SIRT1 KO and SIRT1 OE mice were generated as previously described (Minamishima et al., 2008; Price et al., 2012). Mice were acclimated for at least one-week prior to sacrifice. 3, 6, 22 and 24-month-old mice were given interperitoneal (IP) injections of 500 mg NMN/kg body weight per day or the equivalent volume of PBS for 7 consecutive days at 5:00 pm and 7:00 am on day 8 and sacrificed 4 hr after last injection.
Cytochrome c oxidase activity was polarographically determined based on the 02 consumption upon cytochrome c oxidation, as previously described (Brautigan et al., 1978). The reaction was carried out at 25° C. in 1.3 mL of standard respiratory medium (as in mitochondrial respiration) supplemented with 2 μM rotenone, 10 μM oxidized cytochrome c, 0.3 mg TritonX-100. Following addition of the sample, the reaction was initiated by adding 5 mM ascorbate plus 0.25 mM tetramethylphenylene-diamine (TMPD).
ATP content was measured with a commercial kit according to the manufacturer's instructions (Roche).
RNA from skeletal muscle tissue and C2C12 cells were extracted with RNeasy mini kit (Qiagen) according to the instructions and quantified using the NanoDrop 1000 spectrophotometer (Thermo Scientific). cDNA was synthesized with the iSCRIP cDNA synthesis kit (BioRad) using 600 ng of RNA. Quantitative RT-PCR reactions were performed using 1 μM of primers and LightCycler® 480 SYBR Green Master (Roche) on an LightCycler® 480 detection system (Roche). Calculations were performed by a comparative method (2-ΔCT) using 18S as an internal control. For mtDNA analysis, total DNA was extracted with DNeasy blood and tissue kit (Qiagen). mtDNA was amplified using primers specific for the mitochondrial cytochrome c oxidase subunit 2 (COX2) gene and normalized to genomic DNA by amplification of the ribosomal protein s18 (rps18) nuclear gene. Primers were designed using the IDT software (IDT) and the primer sequences can be found in Table 1.
Protein extracts from tissue or C2C12 cells were obtained by lysis in ice-cold lysis buffer (150 mM NaCl, 10 mM Tris HCl (pH 7.4), 1 mM EDTA, 1 mM EGTA, 1% Triton X-100, 0.5% NP-40) supplemented with a cocktail of protease and phosphatase inhibitors (Roche). Protein content was determined by the Bradford protein assay (Biorad), and 50 μg proteins were run on SDS-PAGE under reducing conditions. The separated proteins were then electrophoretically transferred to a polyvinylidene difluoride membrane (Perkin-Elmer). […] The immunostaining was detected using horseradish peroxidase-conjugated anti-rabbit or anti-mouse immunoglobulin for 1 h at room temperature.
NAD^+ from skeletal muscle was quantified with a commercially available kit (BioVision) according to the manufacturer's instructions and as described before (Gomes et al., 2012).
It was shown above that decreased levels of NAD^+ associated with age invokes a SIRT1 dependent pseudohypoxic response that disrupts mitochondrial homeostasis. Therefore, artificially boosting NAD^+ levels in old mice should restore mitochondrial homeostasis by reducing HIF-1α levels and restoring the expression of mitochondrial-encoded ETC components. Administration of NMN, a compound recently shown to increase NAD^+ levels in a variety of tissues (Yoshino et al., 2011), to 6- and 22-month-old C57BL/6J mice for one week increased levels of cellular NAD^+ in both the young and old mice were by 2-fold. The boost in the treated 22-month-old mice resembled the untreated 6-month-olds (FIG. 17A).

The next assay has as its system primary myoblasts. The assay is described as follows: NMN in primary myoblasts with NMNAT1 knockdown, qPCR of mitochondrial-encoded genes. Format: cell-based, mouse. As to conditions: cells with knockdown of NMNAT1 versus nontargeting shRNA. From the text: FIGS. 17A-17L reveal that increasing NAD+ levels rescues age-related mitochondrial and muscle dysfunction through a SIRT1-HIF-1α pathway. FIG. 17A depicts NAD+ levels in gastrocnemius of 3- and 24-month-old mice treated with either the vehicle (PBS) or NMN (n=5, *p<0.05 versus 3-month-old PBS animals, #p<0.05 versus 24-month-old PBS animals). FIG. 17B depicts ATP content in gastrocnemius of 6- and 22-month-old mice treated with either the vehicle (PBS) or NMN (n=6). FIG. 17C depicts expression of mitochondrial-encoded genes (ND1, Cytb, COX1 and ATP6) analyzed by qPCR in gastrocnemius of 6- and 22-month-old mice treated with either the vehicle (PBS) or NMN. Relative expression values were normalized to 6-months old PBS mice (n=6). […] FIG. 17F depicts expression of mitochondrial-encoded genes (ND1, Cytb, COX1 and ATP6) analyzed by qPCR in gastrocnemius of WT and Egln1 KO mice treated with either the vehicle (PBS) or NMN. […] FIG. 17H depicts expression of mitochondrial-enoded genes (ND1, Cytb, COX1 and ATP6) analyzed by qPCR in primary myoblasts WT cells infected with NMNAT1 or nontargeting shRNA treated with either the vehicle (PBS) or NMN. […] FIG. 17I depicts expression of mitochondrial-encoded genes (ND1, Cytb, COX1 and ATP6) analyzed by qPCR in gastrocnemius of WT and SIRT1 KO mice treated with either the vehicle (PBS) or NMN. […] Values are expressed as mean±SEM. […]
(In general: Real-time PCR tracks product formation cycle by cycle.)

Entries after “also recorded” stand apart in the source; their conditions may differ.

Regarding `NC(=O)c1ccc[n+]([C@@H]2O[C@H](COP(=O)([O-])O)[C@@H](O)[C@H]2O)c1` [NMN, nicotinamide mononucleotide], the “expression of mitochondrial-encoded genes” value in assay [1] (gastrocnemius, qPCR, old mice) is reported as “restored”. Besides, in assay [1] (gastrocnemius, old mice), the ATP levels entry is reported as “increase”, the COX activity result is recorded as “increase”, the “HIF-1α protein (immunoblot)” value is reported as “reversed; also recorded: reduced the level of HIF-1α” and the “VHL protein (immunoblot)” value was “reversed the age-induced decline”. Moreover, in assay [1] (old mice), the “lactate levels in the skeletal muscle” value is recorded as “suppressed the increase”. Besides, the “muscle wasting markers Atrogin-1 and MuRF1” value in assay [1] (skeletal muscle of old mice, immunoblot) is reported as “completely reversed”. For the same compound, the “expression of inflammation markers” value in assay [1] (skeletal muscle of old mice, qPCR) is given as “completely reversed”. The “phosphorylation of AKT and IRS-1” value in assay [1] (soleus of old mice, immunoblot) is “increasing the phosphorylation”. In addition, the “age-induced insulin resistance in the skeletal muscle” value in assay [1] (soleus of old mice) is “reverse age-induced insulin resistance”. The “levels of cellular NAD+” value in assay [1] (young and old mice) is 2 fold. Further, the “ability of NMN to induce the expression of mitochondrial-encoded genes” value with primary myoblasts was “completely abolishes”.
